From paper PMC9518245 (Journal of Enzyme Inhibition and Medicinal Chemistry, 2022)
Like-named read-outs stand apart in the source and are kept apart here.

Assays:
[1] = target: T1, FLAP (5-LOX product formation) (Homo sapiens, UniProt P20292); assay: FLAP-dependent 5-LOX product formation in human neutrophils; type: cell-based; details: for IC50: human neutrophils, A23187 stimulated, read-out: FLAP (5-LOX product formation) IC50 ± SEM
T1 construct: Human neutrophils were isolated from buffy coats of healthy adult fasted donors; endogenous in cells; host or cells: primary human neutrophils from buffy coats
T1 sequence (P20292 1-161): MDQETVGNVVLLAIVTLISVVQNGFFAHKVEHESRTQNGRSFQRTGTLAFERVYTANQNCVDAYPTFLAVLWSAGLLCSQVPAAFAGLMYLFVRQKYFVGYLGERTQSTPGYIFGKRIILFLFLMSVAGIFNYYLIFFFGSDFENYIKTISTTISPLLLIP
Method: Human neutrophils were isolated from buffy coats of healthy adult fasted donors as described recently.[32] […] 200 ng of internal PGB1 standard was added to the acidified samples and solid-phase-extraction using C18 RP-columns (100 mg, UCT, Bristol, PA, USA) was performed. Samples were eluted with methanol and 5-LOX products including 5-HpETE, and the corresponding alcohol 5-HETE, LTB4, and all-trans-isomers of LTB4 were analysed by RP-HPLC with a C-18 Radial-PAK column (Waters, Eschborn, Germany) as described.[33]

[2] = target: T2, Human recombinant sEH (Homo sapiens, UniProt P34913); assay: sEH activity assay (PHOME fluorescence, cell-free); type: biochemical
T2 construct: made in house
T2 sequence (P34913 1-555): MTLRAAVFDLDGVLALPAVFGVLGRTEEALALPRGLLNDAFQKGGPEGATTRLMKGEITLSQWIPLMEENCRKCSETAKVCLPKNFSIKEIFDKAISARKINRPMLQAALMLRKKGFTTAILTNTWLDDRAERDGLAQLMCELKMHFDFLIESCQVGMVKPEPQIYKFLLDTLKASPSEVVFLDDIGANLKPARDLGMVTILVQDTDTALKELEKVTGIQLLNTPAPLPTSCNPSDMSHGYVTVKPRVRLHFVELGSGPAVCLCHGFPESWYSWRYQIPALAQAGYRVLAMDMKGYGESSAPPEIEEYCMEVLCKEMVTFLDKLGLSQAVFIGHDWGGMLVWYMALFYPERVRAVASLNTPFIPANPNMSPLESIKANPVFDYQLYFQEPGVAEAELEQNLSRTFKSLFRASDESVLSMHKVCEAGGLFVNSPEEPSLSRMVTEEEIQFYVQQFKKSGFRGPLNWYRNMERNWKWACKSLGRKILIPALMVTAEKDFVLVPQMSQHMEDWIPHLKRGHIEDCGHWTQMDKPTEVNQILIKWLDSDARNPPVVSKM
Method: Human recombinant sEH was expressed and purified as published.[23] Isolated sEH was diluted in 25 mM Tris buffer (pH 7) containing 0.1 mg/mL BSA to a final protein concentration of 0.5 µg/mL. Preincubation with test compounds or 0.1% vehicle (DMSO) at room temperature for 10 min was followed by stimulation with 50 µM PHOME at RT for 60 min. Reactions were stopped with 200 mM ZnSO4 and fluorescence was subsequently detected at λem 465 nm and λex 330 nm. If required, possible fluorescence of the compounds was subtracted from the read-out.

[3] = set-up: method as in PMID 28218273, PMID 26882208, PMID 28839250; details: cited from earlier work
[4] = system: LT biosynthesis; details: cited from earlier work
[5] = lead compound, stated without reference; cited from earlier work
[6] = target: T1, FLAP (5-LOX product formation); details: neutrophils; cited from earlier work
[7] = read-out: sEH IC50 ± SEM, human recombinant sEH, cell-free

SMILES	IC50 [1] [nM]	IC50 [2] [nM]	melting point [°C]	other results
O=C(Nc1ccc(OCc2nc3ccccc3[nH]2)cc1)Nc1ccc(Cl)c(Cl)c1 [Compound 6b, 1-(4-((1H-benzo[d]imidazol-2-yl)methoxy)phenyl)-3-(3,4-dichlorophenyl)urea]	600 ± 100	10.5 ± 1.9	272	–
Cc1cc(OCc2nc3ccccc3s2)ccc1NC(=O)Nc1ccc(Cl)c(Cl)c1 [Diflapolin]	–	–	–	acute cytotoxicity [3]: no acute cytotoxicity; LT biosynthesis in vivo [4]: efficiently inhibits LT biosynthesis in vivo; anti-inflammatory activity in mouse ([4]; mouse): strong anti-inflammatory activity; solubility [5]: poor solubility
Cc1cc(NC(=O)Nc2ccc(Cl)c(Cl)c2)ccc1OCc1nc2ccccc2[nH]1 [Compound 6c, 1-(4-((1H-benzo[d]imidazol-2-yl)methoxy)-3-methylphenyl)-3-(3,4-dichlorophenyl)urea]	400 ± 10	4.9 ± 1	228 to 230	–
Cc1cc(OCc2nc3ccccc3n2C(=O)OC(C)(C)C)ccc1NC(=S)Nc1ccc(Cl)c(Cl)c1 [Compound 5d, tert-butyl 2-((4-(3-(3,4-dichlorophenyl)thioureido)-3-methylphenoxy)methyl)-1H-benzo[d]imidazole-1-carboxylate]	> 10000	–	172	FLAP activity (in words) [1]: Inactive; sEH activity (in words) [2]: inactive; IC50 [2, 7]: > 10000 nM
Cc1cc(OCc2nc3ccccc3[nH]2)ccc1NC(=S)Nc1ccc(Cl)c(Cl)c1 [Compound 6d, 1-(4-((1H-benzo[d]imidazol-2-yl)methoxy)-2-methylphenyl)-3-(3,4-dichlorophenyl)thiourea]	600 ± 100	223 ± 85.8	122 to 124	–
Cc1cc(OCc2nc3ccccc3[nH]2)ccc1NC(=O)Nc1ccc(Cl)c(Cl)c1 [Compound 6a, 1-(4-((1H-benzo[d]imidazol-2-yl)methoxy)-2-methylphenyl)-3-(3,4-dichlorophenyl)urea]	700 ± 100	–	245 to 246	IC50 [2, 7]: 56.9 ± 19.4 nM
CC(C)(C)OC(=O)n1c(COc2ccc(NC(=S)Nc3ccc(Cl)c(Cl)c3)cc2)nc2ccccc21 [Compound 5e, tert-butyl 2-((4-(3-(3,4-dichlorophenyl)thioureido)phenoxy)methyl)-1H-benzo[d]imidazole-1-carboxylate]	> 10000	19.1 ± 7.2	165 to 167	–
Cc1cc(OCc2nc3ccccc3n2C(=O)OC(C)(C)C)ccc1NC(=O)Nc1ccc(Cl)c(Cl)c1 [Compound 5a, tert-butyl-2-((4-(3-(3,4-dichlorophenyl)ureido)-3-methylphenoxy)methyl)-1H-benzo[d]imidazole-1-carboxylate]	3700 ± 900	0.7 ± 0.1	261 to 263	–
Cc1cc(NC(=O)Nc2ccc(Cl)c(Cl)c2)ccc1OCc1nc2ccccc2n1C(=O)OC(C)(C)C [Compound 5c, tert-butyl-2-((4-(3-(3,4-dichlorophenyl)ureido)-2-methylphenoxy)methyl)-1H-benzo[d]imidazole-1-carboxylate]	> 10000	0.7 ± 0.1	145 to 146	–
Cc1cc(NC(=S)Nc2ccc(Cl)c(Cl)c2)ccc1OCc1nc2ccccc2[nH]1 [Compound 6f, 1-(4-((1H-benzo[d]imidazol-2-yl)methoxy)-3-methylphenyl)-3-(3,4-dichlorophenyl)thiourea]	750 ± 170	772 ± 169	167 to 168	–
CC(C)c1ccc2c(c1)c(SC(C)(C)C)c(CC(C)(C)C(=O)O)n2Cc1ccc(Cl)cc1 [MK-886]	–	–	–	IC50 [6]: 10 to 14 nM
Cc1cc(NC(=S)Nc2ccc(Cl)c(Cl)c2)ccc1OCc1nc2ccccc2n1C(=O)OC(C)(C)C [Compound 5f, tert-butyl 2-((4–(3-(3,4-dichlorophenyl)thioureido)-2-methylphenoxy)methyl)-1H-benzo[d]imidazole-1-carboxylate]	> 10000	17.5 ± 12.7	169 to 172	–
S=C(Nc1ccc(OCc2nc3ccccc3[nH]2)cc1)Nc1ccc(Cl)c(Cl)c1 [Compound 6e, 1-(4-((1H-benzo[d]imidazol-2-yl)methoxy)phenyl)-3-(3,4-dichlorophenyl)thiourea]	500 ± 100	271 ± 58.4	160 to 162	–
CC(C)(C)OC(=O)n1c(COc2ccc(NC(=O)Nc3ccc(Cl)c(Cl)c3)cc2)nc2ccccc21 [Compound 5b, tert-butyl 2-((4-(3-(3,4-dichlorophenyl)ureido)phenoxy)methyl)-1H-benzo[d]imidazole-1-carboxylate]	> 10000	0.63 ± 0.1	262 to 264	–
